From US20220402948A1, “EGFR INHIBITOR, COMPOSITION AND PREPARATION METHOD THEREFOR” (BETTA PHARMACEUTICALS CO., LTD., priority 2019, published 2022)
Read-outs that look alike come from different tables or passages of the source.

How the values were obtained:
[1] = biological target: EGFRΔ19del/T790M/C797S (Homo sapiens, UniProt P00533, T790M/C797S, form not given); test: EGFR Δ19del/T790M/C797S kinase test (mobility variation analysis, Caliper EZ Reader); assay type: biochemical; conditions: kinase enzymatic activity, Table 1
Summary of the method: (§1)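 Read-out is substrate-to-product conversion by mobility shift, stopped after incubation at room temperature with ATP and substrate, following a 10-minute room-temperature compound–enzyme pre-incubation. IC50 obtained by four-parameter variable-slope fitting of inhibition normalized between enzyme-free and uninhibited controls.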

[2] = biological target: EGFR WT (Homo sapiens, UniProt P00533); test: EGFR WT kinase test (mobility variation analysis, Caliper EZ Reader); assay type: biochemical; conditions: kinase enzymatic activity, Table 1
Summary of the method: as §1

[3] = biological target: IGF1R (Homo sapiens, UniProt P08069); test: IGF1R kinase test (mobility variation analysis, Caliper EZ Reader); assay type: biochemical; conditions: kinase enzymatic activity, Table 1; read-out: EGFR IGF1R IC50
Chain of IGF1R (P08069 31-1367, species assumed): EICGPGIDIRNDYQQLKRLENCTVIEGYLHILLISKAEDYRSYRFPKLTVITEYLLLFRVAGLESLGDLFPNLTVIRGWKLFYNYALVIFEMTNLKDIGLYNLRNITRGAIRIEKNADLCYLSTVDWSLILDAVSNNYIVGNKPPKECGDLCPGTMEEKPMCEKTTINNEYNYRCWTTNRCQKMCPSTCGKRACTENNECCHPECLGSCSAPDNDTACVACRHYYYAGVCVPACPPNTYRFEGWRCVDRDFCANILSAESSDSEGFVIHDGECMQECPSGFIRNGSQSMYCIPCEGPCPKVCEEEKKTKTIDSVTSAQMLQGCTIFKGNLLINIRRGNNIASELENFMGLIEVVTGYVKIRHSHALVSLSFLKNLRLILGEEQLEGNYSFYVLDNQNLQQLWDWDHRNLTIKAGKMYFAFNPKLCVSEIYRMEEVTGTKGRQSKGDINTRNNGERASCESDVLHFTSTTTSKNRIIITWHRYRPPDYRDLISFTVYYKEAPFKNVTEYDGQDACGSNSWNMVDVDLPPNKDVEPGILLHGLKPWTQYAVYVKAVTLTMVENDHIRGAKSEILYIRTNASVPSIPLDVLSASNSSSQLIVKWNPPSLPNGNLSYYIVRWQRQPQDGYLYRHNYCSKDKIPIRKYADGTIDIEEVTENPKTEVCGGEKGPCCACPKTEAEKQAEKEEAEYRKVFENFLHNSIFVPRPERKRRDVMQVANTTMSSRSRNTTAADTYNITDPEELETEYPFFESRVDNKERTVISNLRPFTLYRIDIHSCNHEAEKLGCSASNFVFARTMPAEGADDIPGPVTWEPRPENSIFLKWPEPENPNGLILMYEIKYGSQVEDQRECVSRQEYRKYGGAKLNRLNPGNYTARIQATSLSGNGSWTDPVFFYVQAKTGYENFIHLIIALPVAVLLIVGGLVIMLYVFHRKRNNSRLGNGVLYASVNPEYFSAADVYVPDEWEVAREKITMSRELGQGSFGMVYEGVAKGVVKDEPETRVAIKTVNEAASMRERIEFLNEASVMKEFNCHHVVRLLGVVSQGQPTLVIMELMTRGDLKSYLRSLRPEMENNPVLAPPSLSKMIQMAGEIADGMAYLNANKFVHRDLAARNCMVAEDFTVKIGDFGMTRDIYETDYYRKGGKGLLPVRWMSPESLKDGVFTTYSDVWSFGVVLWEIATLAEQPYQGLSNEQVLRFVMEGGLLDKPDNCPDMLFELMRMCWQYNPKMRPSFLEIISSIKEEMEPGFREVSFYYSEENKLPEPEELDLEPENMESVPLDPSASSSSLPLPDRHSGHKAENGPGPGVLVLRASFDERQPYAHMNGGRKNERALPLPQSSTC
Summary of the method: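 Mobility-shift readout of substrate conversion, normalised to positive (no compound) and negative (no kinase) controls, gives % inhibition and IC50 by four-parameter fit. Compounds, 3-fold dilutions over 10 concentrations starting at 3000 nM, preincubated 10 min with kinase before ATP/substrate start; room temperature.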

[4] = biological target: Ba/F3 cells with EGFR Δ19del/T790M/C797S mutation gene stably overexpressed (Homo sapiens, UniProt P00533, T790M/C797S, cells depend on it, form not given); test: Ba/F3-Δ19del/T790M/C797S cell proliferation assay (CellTiter Glo, 72 hours); assay type: cell-based; conditions: Table 2, read-out: EGFR Δ19del/T790M/C797S IC50
Summary of the method: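 Ba/F3 cells stably overexpressing wild-type EGFR or EGFR Δ19del/T790M/C797S were seeded at 2000 cells/well and incubated 72 h with compound. Viability was read by CellTiter-Glo luminescence, and IC50 came from a four-parameter logistic fit of signal against log concentration.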

[5] = system: A431; test: A431 cell proliferation assay (CellTiter Glo, 72 hours); assay type: cell-based; conditions: cell proliferation, A431, 72 hours, Table 2, read-out: A431 IC50
Summary of the method: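 Luminescence (CellTiter-Glo) after 72 h treatment gives viability, fitted by nonlinear regression to yield IC50. Cells seeded at 2000 per well; nine 3-fold concentrations from 1000 nM, DMSO final 0.1% (0.5% for certain compounds).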

[6] = biological target: Ba/F3-EGFR wild-type cell line (Homo sapiens, UniProt P00533); test: Ba/F3-EGFR wild-type cell proliferation assay (CellTiter Glo, 72 hours); assay type: cell-based; conditions: Table 2, read-out: EGFR WT IC50
Procedure: Cell line: Ba/F3 cells with EGFR Δ19del/T790M/C797S mutation gene stably overexpressed named Ba/F3-Δ119del/T90M/C797S, and A431 and Ba/F3-EGFR wild-type cell line.
a) Centrifuge the growth cells in logarithmic phase at 1000 rpm for 5 minutes, resuspend the cells in culture medium, and then count the cells;
b) Inoculate the cells into a 96-well cell culture plate with a density of 2000 cells/well;
b) Incubate cells in an incubator for another 72 hours.
a) Take out the 96-well cell culture plate and add 50 μl CTG reagent (CellTiter Glo kit, promega, Cat #G7573);
b) Shake the plate for 2 minutes and let cool at room temperature for 10 minutes;
c) Read luminous signal value with PerkinElmer reader,
Analysis of Experimental Data
The data were analyzed by GraphPad Prism 6.0 software to obtain the fitting curve of compound activity.
Y=Min+(Max−Min)/(1+10^((Log IC50−X)*slope));
X: Logarithm of compound concentration; Y: luminous signal.

## CCc1cc(Nc2ncc(Br)c(Nc3ccc(-c4ccc(C)nc4)cc3P(C)(C)=O)n2)c(OC)cc1N1CCC(N2CCN(C)CC2)CC1 [Compound 82, (2-((5-Bromo-2-((5-ethyl-2-methoxy-4-(4-(4-methylpiperazin-1-yl)piperidin-1-yl)phenyl)amino)pyrimidin-4-yl)amino)-5-(6-methylpyridin-3-yl)phenyl)dimethylphosphine oxide]
[1]
  IC50: 0.0005 µM
[2]
  IC50: 0.0291 µM
[3]
  IC50: 0.179 µM
[4]
  GI50: 0.0276 µM
[5]; Homo sapiens, A-431, 72 h
  IC50: 1.62 µM

## CCc1cc(Nc2ncc(Br)c(Nc3ccc(-c4ccc(C)cn4)cc3P(C)(C)=O)n2)c(OC)cc1N1CCC(N2CCN(C)CC2)CC1 [Compound 83, (2-((5-Bromo-2-((5-ethyl-2-methoxy-4-(4-(4-methylpiperazin-1-yl)piperidin-1-yl)phenyl)amino)pyrimidin-4-yl)amino)-5-(5-methylpyridin-2-yl)phenyl)dimethylphosphine oxide]
[1]
  IC50: 0.0003 µM
[2]
  IC50: 0.0294 µM
[3]
  IC50: 0.18 µM
[4]
  GI50: 0.0201 µM
[5]; Homo sapiens, A-431, 72 h
  IC50: 1.43 µM

## CCc1cc(Nc2ncc(Br)c(Nc3ccc(-c4cnn(C(C)C)n4)cc3P(C)(C)=O)n2)c(OC)cc1N1CCC(N2CCN(C)CC2)CC1 [Compound 85, (2-((5-Bromo-2-((5-ethyl-2-methoxy-4-(4-(4-methylpiperazin-1-yl)piperidin-1-yl)phenyl)amino)pyrimidin-4-yl)amino)-5-(2-isopropyl-2H-l,2,3-triazol-4-yl)phenyl)dimethylphosphine oxide]
[4]
  GI50: 0.0286 µM
[6]
  GI50: 1.12 µM
[5]; Homo sapiens, A-431, 72 h
  IC50: 5.77 µM

## CCc1cc(Nc2ncc(Br)c(Nc3ccc(-n4cc(C)cn4)cc3P(C)(C)=O)n2)c(OC)cc1N1CCC(N2CCN(C)CC2)CC1 [Compound 86, (2-((5-Bromo-2-((5-ethyl-2-methoxy-4-(4-(4-methylpiperazin-1-yl)piperidin-1-yl)phenyl)amino)pyrimidin-4-yl)amino)-5-(4-methyl-1H-pyrazol-1-yl)phenyl)dimethylphosphine oxide]
[1]
  IC50: 0.0007 µM
[2]
  IC50: 0.0267 µM
[3]
  IC50: 0.219 µM
[4]
  GI50: 0.0374 µM
[5]; Homo sapiens, A-431, 72 h
  IC50: 1.61 µM

## CCc1cc(Nc2ncc(Br)c(Nc3ccc(-c4cnn(C)c4)cc3P(C)(C)=O)n2)c(OC)cc1N1CCC(N2CCCC2)CC1 [Compound K-001]
[4]
  GI50: 0.0156 µM
[6]
  GI50: 0.335 µM
[5]; Homo sapiens, A-431, 72 h
  IC50: 0.371 µM

## CCn1cc(-c2cc(Nc3ncc(Br)c(Nc4ccc(-c5cc(C)n(C)n5)cc4P(C)(C)=O)n3)c(OC)cc2N2CCC(N3CCN(C)CC3)CC2)cn1 [Compound K-005, (2-((5-Bromo-2-((5-(1-ethyl-1H-pyrazol-4-yl)-2-methoxy-4-(4-(4-methylpiperazin-1-yl)piperidin-1-yl)phenyl)amino)pyrimidin-4-yl)amino)-5-(1,5-dimethyl-1H-pyrazol-3-yl)phenyl)dimethylphosphine oxide]
[4]
  GI50: 0.0279 µM
[6]
  GI50: 0.482 µM
[5]; Homo sapiens, A-431, 72 h
  IC50: 0.415 µM

## CCc1cc(Nc2ncc(Br)c(Nc3ccc(-c4cnn(C(F)F)n4)cc3P(C)(C)=O)n2)c(OC)cc1N1CCC(N2CCN(C)CC2)CC1 [Compound K-006, (2-((5-Bromo-2-((5-ethyl-2-methoxy-4-(4-(4-methylpiperazin-1-yl)piperidin-1-yl)phenyl)amino)pyrimidin-4-yl)amino)-5-(2-(difluoromethyl)-2H-1,2,3-triazol-4-yl)phenyl)dimethylphosphine oxide]
[4]
  GI50: 0.0116 µM
[6]
  GI50: 0.18 µM
[5]; Homo sapiens, A-431, 72 h
  IC50: 1.27 µM

## COc1cnn(-c2ccc(Nc3nc(Nc4cc(C)c(N5CCOCC5)c(OC)c4)ncc3Br)c(P(C)(C)=O)c2)c1 [Compound K-031, (2-((5-Bromo-2-((3-methoxy-5-methyl-4-morpholinophenyl)amino)pyrimidin-4-yl)amino)-5-(4-methoxy-1H-pyrazol-1-yl)phenyl)dimethylphosphine oxide]
[1]
  IC50: 0.0014 µM
[2]
  IC50: 1.13 µM
[3]
  IC50: 0.394 µM
[4]
  GI50: 0.0168 µM
[6]
  GI50: 0.15 µM

## COc1cc(N2CCC(N3CCCCC3)CC2)c(-c2cnn(C)c2)cc1Nc1ncc(Br)c(Nc2ccc(-c3ccccc3)c(C)c2P(C)(C)=O)n1 [Compound K-051]
[4]
  GI50: 0.0014 µM
[6]
  GI50: 0.0158 µM
[5]; Homo sapiens, A-431, 72 h
  IC50: 0.125 µM

## CCc1cc(Nc2ncc(Br)c(Nc3ccc(-c4ncc(C(C)C)cn4)cc3P(C)(C)=O)n2)c(OC)cc1N1CCC(N2CCN(C)CC2)CC1 [Compound K-056, (2-((5-Bromo-2-((5-ethyl-2-methoxy-4-(4-(4-methylpiperazin-1-yl)piperidin-1-yl)phenyl)amino)pyrimidin-4-yl)amino)-5-(5-isopropylpyrimidin-2-yl)phenyl)dimethylphosphine oxide]
[6]
  GI50: 0.524 µM

## CCc1cc(Nc2ncc(Br)c(Nc3ccc(-c4cnc(N(C)C)nc4)cc3P(C)(C)=O)n2)c(OC)cc1N1CCC(N2CCN(C)CC2)CC1 [Compound K-057, (2-((5-Bromo-2-((5-ethyl-2-methoxy-4-(4-(4-methylpiperazin-1-yl)piperidin-1-yl)phenyl)amino)pyrimidin-4-yl)amino)-5-(2-(dimethylamino)pyrimidin-5-yl)phenyl)dimethylphosphine oxide]
[6]
  GI50: 0.206 µM

## CCOc1ncc(-c2ccc(Nc3nc(Nc4cc(CC)c(N5CCC(N6CCN(C)CC6)CC5)cc4OC)ncc3Br)c(P(C)(C)=O)c2)cn1 [Compound K-059, (2-((5-Bromo-2-((5-ethyl-2-methoxy-4-(4-(4-methylpiperazin-1-yl)piperidin-1-yl)phenyl)amino)pyrimidin-4-yl)amino)-5-(2-ethoxypyrimidin-5-yl)phenyl)dimethylphosphine oxide]
[6]
  GI50: 0.352 µM

## CCc1cc(Nc2ncc(Cl)c(Nc3ccc(-c4nn(C)cc4C#N)cc3P(C)(C)=O)n2)c(OC)cc1N1CCC(N2CCN(C)CC2)CC1 [Compound K-060, 3-(4-((5-Chloro-2-((5-ethyl-2-methoxy-4-(4-(4-methylpiperazin-1-yl)piperidin-1-yl)phenyl)amino)pyrimidin-4-yl)amino)-3-(dimethylphosphineoxide)phenyl)-1-methyl-1H-pyrazol-4-carbonitrile]
[6]
  GI50: 0.293 µM

## CCc1cc(Nc2ncc(Br)c(Nc3ccc(-c4cnc(C5CC5)cn4)cc3P(C)(C)=O)n2)c(OC)cc1N1CCC(N2CCN(C)CC2)CC1 [Compound K-064, (2-((5-Bromo-2-((5-ethyl-2-methoxy-4-(4-(4-methylpiperazin-1-yl)piperidin-1-yl)phenyl)amino)pyrimidin-4-yl)amino)-5-(5-cyclopropylpyrazin-2-yl)phenyl)dimethylphosphine oxide]
[6]
  GI50: 0.152 µM

## CCc1cc(Nc2ncc(Br)c(Nc3ccc(-c4cnc(C)cn4)cc3P(C)(C)=O)n2)c(OC)cc1N1CCC(N2CCN(C)CC2)CC1 [Compound K-065, (2-((5-Bromo-2-((5-ethyl-2-methoxy-4-(4-(4-methylpiperazin-1-yl)piperidin-1-yl)phenyl)amino)pyrimidin-4-yl)amino)-5-(5-methylpyrazin-2-yl)phenyl)dimethylphosphine oxide]
[6]
  GI50: 0.132 µM

## CCc1cc(Nc2ncc(Br)c(Nc3ccc(-c4cnc(C)c(C)n4)cc3P(C)(C)=O)n2)c(OC)cc1N1CCC(N2CCN(C)CC2)CC1 [Compound K-067, (2-((5-Bromo-2-((5-ethyl-2-methoxy-4-(4-(4-methylpiperazin-1-/l)piperidin-1-yl)phenyl)amino)pyrimidin-4-yl)amino)-5-(5,6-dimethylpyrazin-2-yl)phenyl)dimethylphosphine oxide]
[6]
  GI50: 0.417 µM

## CCc1cc(Nc2ncc(Br)c(Nc3ccc(-c4ccc(C)nc4)cc3P(C)(C)=O)n2)c(OC)cc1N1CCC(N2CCN(C)CC2)CC1 [Compound K-070, (2-((5-Bromo-2-((5-ethyl-2-methoxy-4-(4-(4-methylpiperazin-1-yl)piperidin-1-yl)phenyl)amino)pyrimidin-4-yl)amino)-5-(6-methylpyridin-3-yl)phenyl)dimethylphosphine oxide]
[6]
  GI50: 0.238 µM

## (2-((5-Bromo-2-((5-ethyl-2-methoxy-4-(4-(4-methylpiperazin-1-yl)piperidin-1-yl)phenyl)amino]amino]pyrimidin-4-yl)amino)-5-(4-methoxy-1H-pyrazol-1-yl)phenyl)dimethylphosphine oxide [Compound 50]
[1]
  IC50: 0.0002 µM
[2]
  IC50: 0.032 µM
[3]
  IC50: 0.268 µM
[4]
  GI50: 0.0191 µM
[5]
  IC50: 1.51 µM
